Reference: US20050267073A1, “Triheterocyclic compounds, compositions, and methods for treating cancer or viral diseases” (priority 2004, published 2005)
Where a name gives a salt, the structure may show the parent alone. Read-outs that look alike come from different tables or passages of the source.

Assays:
[1] = tested on: C33A cervical carcinoma cells; assay: cells; assay type: cell-based; settings: Homo sapiens, C-33-A, read-out: IC50 (μM) C33A, Effect on Cancer Cells Viability
Text: (§1) […]. […] […]. The total dimethyl sulfoxide on the cells was 1%. […] […].
(§2) As depicted in Table 4, these compounds were efficient in decreasing cellular ATP levels in HI 299 and C33A cancer cell lines. Nevertheless, these compounds are believed to have utility in the in vivo methods of the invention, i.e., treatment and prevention of cancer and viral infections, respectively. It should be noted that, although this cell-based assay is believed to be indicative of anti-oncogenic activity in vivo, it is not the only useful assay for evaluating the anti-oncogenic activity of Triheterocyclic Compounds of the invention. In addition, the anti-viral and other biological activity of compounds of the invention can be determined and evaluated in other assay systems known to the skilled artisan.

[2] = tested on: H1299 human non-small cell lung cancer cells; assay: Cell viability by cellular ATP levels (ViaLight), H1299 cells; assay type: cell-based; settings: Homo sapiens
Text: as §1, §2

[3] = C33A, cellular ATP levels as described in Example 2
[4] = NCI-H1299, H1299, cellular ATP levels as described in Example 2, read-out: IC50 (μM) H1299, Effect on Cancer Cells Viability

SMILES	IC50 [1, 3] [µM]	IC50 [2, 4] [µM]	IC50 [1] [µM]	IC50 ([2]; NCI-H1299, read-out: IC50 (μM) H1299, Effect on Cancer Cells Viability) [µM]
COC1=CC(c2[nH]c3ccccc3c2CN2CCOCC2)=N/C1=C\c1[nH]c(C)cc1C [Compound 6, 2-[5-(3,5-Dimethyl-1H-pyrrol-2-ylmethylene)-4-methoxy-5H-pyrrol-2-yl]-3-morpholin-4-ylmethyl-1H-indole]	0.19	0.267	–	–
COC1=CC(c2cc3cc(OC)ccc3[nH]2)=N/C1=C\c1[nH]c(C)cc1C [Compound 15, 2-[5-(3,5-Dimethyl-1H-pyrrol-2-ylmethylene)-4-methoxy-5H-pyrrol-2-yl]-5-methoxy-1H-indole]	1.44	0.935	–	–
COC1=CC(c2[nH]c3ccccc3c2C(=O)NCCCO)=N/C1=C\c1[nH]c(C)cc1C [Compound 48, 2-[5-(3,5-Dimethyl-1H-pyrrol-2-ylmethylene)-4-methoxy-5H-pyrrol-2-yl]-1H-indole-3-carboxylic acid (3-hydroxy-propyl)-amide]	11.1	50	–	–
Cc1cc(C)c(/C=C2\N=C(c3cc4c(OC(=O)OC(C)(C)C)cccc4[nH]3)C=C2OC(C)C)[nH]1 [Compound 38, Carbonic acid tert-butyl ester 2-[5-(3,5-dimethyl-1H-pyrrol-2-ylmethylene)-4-isopropoxy-5H-pyrrol-2-yl]-1H-indol-4-yl ester]	0.226	0.342	–	–
CCOC(=O)C(=O)c1c(C)[nH]c(/C=C2\N=C(c3[nH]c4ccccc4c3C(=O)C(=O)OCC)C=C2OC)c1C [Compound 20, {2-[5-(4-Ethoxyoxalyl-3,5-dimethyl-1H-pyrrol-2-ylmethylene)-4-methoxy-5H-pyrrol-2-yl]-1H-indol-3-yl}-oxo-acetic acid ethyl ester]	7.23	7.98	–	–
Cc1cc(C)c(/C=C2/N=C(c3cc4cc(F)ccc4[nH]3)C=C2OC(C)C)[nH]1 [Compound 42, 2-[5-(3,5-Dimethyl-1H-pyrrol-2-ylmeythylene)-4-isopropoxy-5H-pyrrol-2-yl]-5-fluoro-1H-indole]	0.358	0.458	–	–
Cc1cc(C)c(/C=C2\N=C(c3cc4ccc(Cl)cc4[nH]3)C=C2OC(C)C)[nH]1 [Compound 46, 6-Chloro-2-[5-(3,5-dimethyl-1H-pyrrol-2-ylmethylene)-4-isopropoxy-5H-pyrrol-2-yl]-1H-indole]	0.261	0.245	–	–
COC(=O)CCc1c(C)[nH]c(/C=C2\N=C(c3cc4ccccc4[nH]3)C=C2OC)c1C [Compound 63, 3-{5-[5-(1H-Indol-2-yl)-3-methoxy-pyrrol-2-ylidenemethyl]-2,4-dimethyl-1H-pyrrol-3-yI}-propionic acid methyl ester]	–	–	0.548	0.753
COC1=CC(c2cc3c(OC(=O)OC(C)(C)C)cccc3[nH]2)=N/C1=C\c1[nH]c(C)cc1C [Compound 36, Carbonic acid tert-butyl ester 2-[5-(3,5-dimethyl-1H-pyrrol-2-ylmethylene)-4-methoxy-5H-pyrrol-2-yl]-1H-indol-4-yl ester]	0.583	0.494	–	–
COC1=CC(c2cc3ccccc3[nH]2)=N/C1=C(\C)c1[nH]c(C)cc1C [Compound 47, 2-{5-[1-(3,5-Dimethyl-1H-pyrrol-2-yl)-ethylidene]-4-methoxy-5H-pyrrol-2-yl)-1H-indole]	8.28	9.65	–	–
COC1=CC(c2cc3c(O)cccc3[nH]2)=N/C1=C\c1[nH]c(C)cc1C [Compound 59, 2-[5-(3,5-Dimethyl-1H-pyrrol-2-ylmethylene)-4-methoxy-5H-pyrrol-2-yl]-1H-indol-4-ol]	5.6	5.84	–	–
Cc1cc(C)c(/C=C2\N=C(c3cc4ccc(F)cc4[nH]3)C=C2OC(C)C)[nH]1 [Compound 45, 2-[5-(3,5-Dimethyl-1H-pyrrol-2-ylmethylene)-4-isopropoxy-5H-pyrrol-2-yl]-6-fluoro-1H-indole]	0.716	0.887	–	–
CNCc1c(C2=N/C(=C\c3[nH]c(C)cc3C)C(OC)=C2CO)[nH]c2ccccc12 [Compound 10, [5-(3,5-Dimethyl-1H-pyrrol-2-ylmethylene)-4-methoxy-2-(3-methylaminomethyl-1H-indol-2-yl)-5H-pyrrol-3-yl]-methanol]	0.25	0.493	–	–
COC1=CC(c2cc3ccccc3n2C(=O)c2ccc(Br)cc2)=N/C1=C/c1[nH]c(C)cc1C [Compound 55, (4-Bromo-phenyl)-{2-[5-(3,5-dimethyl-1H-pyrrol-2-ylmethylene)-4-methoxy-5H-pyrrol-2-yl]-indol-1-yl}-methanone]	0.173	0.173	–	–
COC1=C(CO)C(c2[nH]c3ccccc3c2CNC(C)C)=N/C1=C\c1[nH]c(C)cc1C [Compound 11, {5-(3,5-Dimethyl-1H-pyrrol-2-ylmethylene)-2-[3-(isopropylamino-methyl)-1H-indol-2-yl]-4-methoxy-5H-pyrrol-3-yl}-methanol]	0.307	0.983	–	–
COC1=CC(c2cc3ccccc3n2C(=O)N(C)C)=N/C1=C\c1[nH]c(C)cc1C [Compound 39, 2-[5-(3,5-Dimethyl-1H-pyrrol-2-ylmethylene)-4-methoxy-5H-pyrrol-2-yl]-indole-1-carboxylic acid dimethylamide]	2.95	5.67	–	–
COC1=CC(c2cc3ccccc3n2C(=O)c2ccccc2)=N/C1=C/c1[nH]c(C)cc1C [Compound 43, {2-[5-(3,5-Dimethyl-1H-pyrrol-2-ylmethylene)-4-methoxy-5H-pyrrol-2-yl]-indol-1-yl}-phenyl-methanone]	0.196	0.298	–	–
COc1cccc(COC2=CC(c3cc4ccccc4[nH]3)=N/C2=C\c2[nH]c(C)cc2C)c1 [Compound 51, 2-[5-(3,5-Dimethyl-1H-pyrrol-2-ylmethylene)-4-(3-methoxy-benzyloxy)-5H-pyrrol-2-yl]-1H-indole]	0.165	0.202	–	–
Cc1cc(C)c(/C=C2\N=C(c3cc4ccc(O)cc4[nH]3)C=C2OC(C)C)[nH]1 [Compound 56, 2-[5-(3,5-Dimethyl-1H-pyrrol-2-ylmethylene)-4-isopropoxy-5H-pyrrol-2-yl]-1H-indol-6-ol]	2.54	5.96	–	–
COC1=CC(c2cc3ccccc3n2CCOS(=O)(=O)O)=N/C1=C\c1[nH]c(C)cc1C [Compound 65, Sodium salt of Sulfuric acid mono-(2-{2-[5-(3,5-dimethyl-1H-pyrrol-2-ylmethylene)-4-methoxy-5H-pyrrol-2-yl]-indol-1-yl}-ethyl) ester]	5.97	7.89	–	–
COC1=CC(c2[nH]c3ccccc3c2CN2CCN(c3ccccc3)CC2)=N/C1=C\c1[nH]c(C)cc1C [Compound 8, 2-[5-(3,5-Dimethyl-1H-pyrrol-2-ylmethylene)-4-methoxy-5H-pyrrol-2-yl]-3-(4-phenyl-piperazin-1-ylmethyl)-1H-indole]	1.76	1.88	–	–
COC1=C(CO)C(c2[nH]c3ccccc3c2CNCCO)=N/C1=C\c1[nH]c(C)cc1C [Compound 9, 2-({2-[5-(3,5-Dimethyl-1H-pyrrol-2-ylmethylene)-3-hydroxymethyl-4-methoxy-5H-pyrrol-2-yl]-1H-indol-3-ylmethyl}-amino)-ethanol]	2.21	4.43	–	–
COC1=CC(c2[nH]c3ccccc3c2C(=O)c2ccsc2)=N/C1=C\c1[nH]c(C)cc1C [Compound 12, {2-[5-(3,5-Dimethyl-1H-pyrrol-2-ylmethylene)-4-methoxy-5H-pyrrol-2-yl]-1H-indol-3-yl}-thiophen-3-yl-methanone]	3.6	2.95	–	–
Cc1cc(C)c(/C=C2\N=C(c3cc4ccccc4[nH]3)C=C2O)[nH]1 [Compound 50, 2-(3,5-Dimethyl-1H-pyrrol-2-ylmethylene)-5-(1H-indol-2-yl)-2H-pyrrol-3-ol]	0.509	1.21	–	–
COC1=CC(c2[nH]c3ccccc3c2C(=O)c2ccc(-c3ccccn3)s2)=N/C1=C\c1[nH]c(C)cc1C [Compound 22, {2-[5-(3,5-Dimethyl-1H-pyrrol-2-ylmethylene)-4-methoxy-5H-pyrrol-2-yl]-1H-indol-3-yl}-(5-pyridin-2-yl-thiophen-2-yl)-methanone]	6.46	7.19	–	–
COC1=CC(c2cc3ccccc3n2C(=O)OCC(O)CO)=N/C1=C\c1[nH]c(C)cc1C (stereo not shown) [Compound 44, 2-[5-(3,5-Dimethyl-1H-pyrrol-2-ylmethylene)-4-methoxy-5H-pyrrol-2-yl]-indole-1-carboxylic acid 2,3-dihydroxy-propyl ester]	1.26	1.28	–	–
COC1=CC(c2cc3ccccc3n2CCO)=N/C1=C\c1[nH]c(C)cc1C [Compound 40, 2-{2-[5-(3,5-Dimethyl-1H-pyrrol-2-ylmethylene)-4-methoxy-5H-pyrrol-2-yl]-indol-1-yl}-ethanol]	7.17	8.46	–	–
COC1=CC(c2cc3ccccc3n2Cc2ccc(O)cc2)=N/C1=C\c1[nH]c(C)cc1C [Compound 58, 4-{2-(5-(3,5-Dimethyl-1H-pyrrol-2-ylmethylene)-4-methoxy-5H-pyrrol-2-yl]-indol-1-ylmethyl}-phenol]	1.32	1.97	–	–
COC1=CC(c2cc3cc(OC)ccc3n2C(=O)OC(C)(C)C)=N/C1=C\c1[nH]c(C)cc1C [Compound 30, 2-[5-(3,5-Dimethyl-1H-pyrrol-2-ylmethylene)-4-methoxy-5H-pyrrol-2-yl]-5-methoxy-indole-1-carboxylic acid tert-butyl ester]	50	50	–	–
